Measurements published in patent publication US8048455B2, “Treatment of cancer and inflammatory disorder” (Academia Sinica, priority 2006, dated 2011).

How the values were obtained:
B16 melanoma = assay: In vivo inhibition of B16 melanoma growth in C57BL/6J mice; details: mouse, in vivo, ip
Protocol: The chemopreventive effect of the CREa8 subfraction was evaluated on tumor growth using the B16 melanoma C57BL/6J mouse system. Six-week-old animals (4 groups of mice, 5 in each group) were used in this experiment. Group 1 mice (Sham control) were intraperitoneally (i.p.) injected with 20 μL of DMSO every 2 days throughout the experimental period, except 100 μL PBS was injected on day 0. Group 4 mice (Tumor control) were pre-treated with DMSO every 2 days, starting from day—14, for 2 weeks, inoculated with B16 tumor cells (1×10^6 cells/100 μL PBS) subcutaneously (s.c.) on the abdominal area on day 0, and then injected with DMSO every 2 days until day 21. Group 2 mice were i.p. pre-treated with CREa8 (10 mg/kg body weight per dose) every 2 days, starting from day—14, for 2 weeks, s.c. inoculated with B16 tumor cells on day 0, and then continuously treated with CREa8 (i.p.) every 2 days until day 21. Group 3 mice were similarly pre-treated with DMSO every 2 days for 2 weeks, inoculated with B16 tumor cells on day 0, and then treated with cisplatin (i.p.) every 2 days until day 21. The test mice were monitored daily, and body weights and tumor size (average of 2 dimensions) recorded every 2 days. At the end of the experiment (day 21), tumors were excised and weighed.
The cancer prevention efficacy of the dLGG-rich fraction (CREa8) was examined in vivo in 4 groups of mice according to the method described above. Cisplatin, a cancer chemotherapeutic, was used as a reference control.

IKKα/β = IKKα/β phosphorylation, IRAK-1 degradation and IKK kinase assay in LPS-stimulated RAW 264.7 cells; assay type: cell-based, murine
Protocol: Whole cell lysates (300 μg) of macrophages were pre-cleaned by incubation with 0.25 μg IgG and 20 μL protein A/G plus agarose beads (Santa Cruz) for 30 minutes at 4° C. Supernatants were then collected and incubated with IKKα/β antibody and protein A/G plus agarose beads at 4° C. overnight. Precipitates were washed with an IP buffer and a kinase buffer. IKK kinase activity was assayed by adding 1 μg of GST-IκBα fusion protein (Santa Cruz) and 200 μM ATP in 20 μL kinase buffer for 30 minutes at 30° C. and then stopped by mixing with the Laemmli's loading buffer and heated at 100° C. for 5 minutes. Samples were then subjected to immunoblotting.
Assays were carried out in RAW 264.7 cells to examine the effects of dLGG on levels of IKKα/β and phospho-IKKα/β, the upstream kinase of IκBα in the NF-κB signaling pathway, and the upstream kinase, IRAK-1, for activating IKK complex. Cells were pretreated with various concentrations of dLGG for 1 hours, followed by LPS stimulation (1 μg/mL for 30 min). Specific IKKα/β and the phosphorylated forms of IKKα/β or GST-IκBα were detected by immunoblotting. IKKα/β immunoprecipitates were prepared from total cell lysate using anti-IKKα/β antibody and subsequently subjected to IKK kinase assay using GST-IκBα as substrate. […] (nuclear protein) and α-tubulin (cytosolic protein) were used as loading controls.
IKK enzymatic activity was also determined to confirm whether it was correlated to the inhibition of IκBα phosphorylation by dLGG. Immunoprecipitated IKK proteins obtained from control cells (±LPS/−dLGG) or cells treated with LPS+dLGG were assayed for phosphorylation of GST-IκBα. The LPS-induced enzymatic phosphorylation of IκBα (p-IκBα) was decreased approximately 42% when treated with 75 μg/mL dLGG. The levels of immunoprecipitated IKK proteins were not affected by dLGG.

NF-κB (p65) = assay: NF-κB p65 nuclear translocation in LPS-stimulated RAW 264.7 cells (immunoblotting, confocal microscopy); assay type: cell-based, murine
Protocol: Total cellular proteins and the specific cytosolic and nuclear proteins were prepared using methods described in Chiang et al. Protein content was measured by the Bradford method (Bio-Rad). Protein was resolved by 5-20% gradient SDS-PAGE and subjected to immunoblotting using enhanced chemiluminescence reagents (ECL, Amersham). Monoclonal antibodies against PARP (Transduction Laboratories, Lexington, Ky.), GA3PDH (Biogenesis, Poole, UK), α-tubulin (Oncogene Science, Cambridge, UK), COX-2 (Cayman Chemical), phospho-(Ser32)-IκBα, phospho-IKKα(Ser180)/IKKβ(Ser181) (New England Biolabs, Beverly, Mass.), iNOS, IκBα, IKKα/β or NF-κB p65 (RelA) (Santa Cruz Biotechnology, Santa Cruz, Calif.) were used.
RAW 264.7 cells were seeded in chamber slides for 1 hour, and then treated with DMSO or dLGG (75 μg/mL) for 1 hour, with or without LPS stimulation for an additional 90 minutes. The cells were fixed, permeabilized with 0.1% Triton X-100, and stained with Hoechst 33342 (DNA marker), FITC-labeled anti-α-tubulin Ab (cytoplasm marker), or rabbit anti-p65 antibody visualized with goat anti-rabbit Rhodamine Red-labeled secondary antibody for analysis with a Zeiss LSM 510 META confocal laser-scanning microscope.
The distribution of NF-κB (p65) in nucleus and cytoplasm was determined using immunoblotting. Cells were treated with various concentrations of dLGG for 1 hour and then stimulated with LPS (1 μg/mL) for another 90 min. Nuclear and cytosolic fractions were immunoblotted with p65 NF-κB antibody. A slight increase in nuclear p65 protein (1.5-fold) was detected when macrophages were treated with a low concentration of dLGG (5 μg/mL), compared to LPS alone (1.0). With higher concentrations of dLGG (25 to 75 μg/mL), the level of nuclear p65 decreased accordingly. Cytoplasmic levels of NF-κB (p65) were not affected by dLGG treatment of LPS-stimulated macrophages.
The effect of dLGG on NF-κB (p65) nuclear translocation was also examined by confocal microscopy. Macrophages were treated with 0.4% DMSO, or LPS (1 μg/mL) with or without dLGG (75 μg/mL), and stained with fluorescence-labeled antibodies against p65 (red). To distinguish nucleus from cytosol, cells were also stained with DNA-specific Hoechst 33342 (blue) and with anti-α-tubulin antibody (green). In vehicle-treated cells, p65 protein was mainly found in the cytosol of test cells.

PGE2 production = assay: LPS-induced PGE2 production in RAW 264.7 macrophages; assay type: cell-based, murine; details: doses between 25 and 75 μg/mL
Protocol: PGE2 production was determined according to the procedure described in Chiang et al. Br J Pharmacol 2005; 146:352-63. Macrophages were pretreated with aspirin (500 μM, 3 h) to inactivate endogenous cyclooxygenase-1, washed, and incubated with test compounds for 1 hour before further incubation for 16 hours with or without LPS. PGE2 in the culture media was determined with ACE™ Competitive Enzyme Immunoassay (Cayman Chemical).
The above-mentioned test compounds were incubated with COX-2 enzyme and substrates before measuring the COX-2 activity. Celecoxib, a potent nonsteroidal anti-inflammatory drug (NSAID), was used as a positive control. […] The IC50 of the nonsteroidal anti-inflammatory drug celecoxib, used as a positive control, was 0.47 μg/mL. RAW 264.7 cells (1×10^4 cells/well) were treated with dLGG and then stimulated with LPS, and PGE2 in the culture medium was then measured.

SMILES: CC/C=C\C/C=C\C/C=C\CCCCCCCC(=O)OC[C@H](CO[C@@H]1O[C@H](CO)[C@H](O)[C@H](O)[C@H]1O)OC(=O)CCCCCCC/C=C\C/C=C\C/C=C\CC [dLGG, 1,2-di-O-α-linolenoyl-3-O-β-galactopyranosyl-sn-glycerol]
- Mortality or body weight loss on i.p. administration (B16 melanoma): without mortality or body weight loss
- Decrease of LPS-induced enzymatic phosphorylation of IκBα (IKK kinase assay, GST-IκBα) (IKKα/β; 75 μg/mL): approximately 42%
- IRAK-1 degradation in LPS-stimulated macrophages (IKKα/β; LPS-stimulated): inhibited
- IKKα/β levels (IKKα/β; dLGG 1 h, LPS 1 μg/mL 30 min): little affected
- LPS-induced phosphorylation of IKKα/β (IKKα/β; dLGG 1 h, LPS 1 μg/mL 30 min): inhibited
- Nuclear p65 protein compared to LPS alone (1.0) (NF-κB (p65); 5 μg/mL, LPS 90 min): 1.5 fold
- p65 nuclear translocation by confocal microscopy (NF-κB (p65); 75 μg/mL, LPS 1 μg/mL): drastically inhibited
- Level of nuclear p65 (NF-κB (p65); 25 to 75 μg/mL, LPS 90 min): decreased
- Cytoplasmic levels of NF-κB (p65) (NF-κB (p65); LPS-stimulated macrophages): not affected
- Reduction of LPS-induced PGE2 levels (PGE2 production): 37-58%
